Measured values from US20150315218A1, “SALTS OF PRODRUGS OF PIPERAZINE AND SUBSTITUTED PIPERIDINE ANTIVIRAL AGENTS” (Bristol-Myers Squibb Company, priority 2004, published 2015).
In brackets after ≈: the same amount, converted by molar mass. Structures can show the parent of a compound that is named as a salt. Where two headings read alike, the source gives them in different places.

Legend:
[1] = Effect of food on oral absorption of IVa in dogs after Iab or IVa capsules; assay type: in vivo, dog; details: for AUC / Cmax / Tmax / half-life: dog, po, 20 mg/kg
Procedure: To study the effect of food on the oral absorption of IVa after administration of Iab and IVa, these two compounds were administered in capsules as solid to a group of three dogs in a cross-over fashion under overnight fasting and fed conditions. There was a one-week washout period between each study. Iab was administered at 200 mg per dog (ca 20 mg/kg) of IVa equivalent; IVa was administered in a clinical capsule formulation at 200 mg per dog (ca 20 mg/kg). In the studies where the dogs were fed, the following meal was prepared: 2 slices of bacon, 2 eggs, 2 pieces of toast with butter and jelly, 4 oz. hash browns and 8 oz. of whole milk. After homogenization using a laboratory blender, the meal was equally divided into five portions and kept frozen. Before the study, the meals were thawed and each dog was fed one portion.

[2] = IV and oral rat PK (MAP) studies A, B, C of phosphate prodrugs and parent studies A1, B1, C1; assay type: in vivo, Sprague-Dawley rats; details: rats; for Vd / half-life / concentration at 24 h / AUC(0-t) / Tmax / Cmax: male, Sprague-Dawley, rat; for Vd: read-out: Vss i.v.; for concentration at 24 h: oral, read-out: Cp @ 24 hr p.o.; for AUC(0-t): AUC 0-24 h (μM * hr)
Procedure: The rats for oral dosing studies were fasted overnight. […] The dosing solutions of all three prodrugs for both IV and oral administration were prepared in 100% normal saline at 1 mg/mL (dosing solution concentrations were parent compound equivalent). Plasma samples were collected in EDTA vacutainers over 24 hrs, and analyzed by LC/MS/MS for both the prodrugs and parent molecules. Pharmacokinetic analysis was performed on Kinetica™.
Plasma and tissue samples were collected and stored at −20° C. until analysis. […] Rats were fasted overnight in PO studies. […] In the PO studies, rats (n=3) received PO doses of 5 and 100 mg/kg.
Male Sprague-Dawley rats (300-350 g, Hilltop Lab Animals, Inc., Scottdale, Pa.) with cannulas implanted in the jugular vein and/or bile duct were used. The rats were fasted overnight in the PO pharmacokinetic studies. Blood samples of 0.3 ml were collected from the jugular vein in EDTA-containing microtainer tubes (Becton Dickinson, Franklin Lakes, N.J.), and centrifuged to separate plasma.

physchem = details: aqueous buffer, thermodynamic from solid
in vitro = details: rat, serum
[3] = Solution and solid stability; assay type: physicochemical
rat hepatocytes = experiment: Hydrolysis of prodrug in hepatocytes (rat); assay type: in vitro ADME
Procedure: (§1) The in vitro intrinsic clearance of Ibb in hepatocytes (Clint) was calculated as follows: Clint(μL/min/million cells)=Rate/CE where Rate is the rate of metabolism in hepatocytes (pmol/min/million cells), and CE is the concentration of Ibb in the incubation. The in vitro intrinsic clearance of Icb in hepatocytes (Clint) was calculated as follows: Clint(μL/min/million cells)=Rate/CE where Rate is the rate of metabolism in hepatocytes (pmol/min/million cells), and CE is the concentration of Icb in the incubation.

[4] = target: T1, human placental alkaline phosphatase (ALP) (Homo sapiens, UniProt P05187); experiment: Hydrolysis of prodrug in human placental ALP solutions; assay type: in vitro ADME; details: human placental ALP solution, 37°C, 120 min, read-out: t1/2 (min) of prodrug disappearance
T1 construct: To study the hydrolysis of lab in a purified form of human ALP, Iab was incubated in human placental ALP solutions; host or cells: human placenta (inferred from the name and from 'ALP derived from humans')
Procedure: (§2) Solid human placental ALP was obtained from Sigma (P-3895, St. Louis, Mo.). […] Solutions of 100 and 10 units/L were obtained by serial dilution. Iab was incubated in the 10, 100 and 1000 units/L solutions (n=2) at 37° C. for 2 hr. The starting concentration of Iab in the incubation was 10 μM. Aliquots of 100 μL samples were taken at pre-determined times and added into K2EDTA microtainers followed by the addition of 200 μL of acetonitrile.
as §2, with “Ibb” for “Iab”
as §2, with “Icb” for “Iab”, “acetonitrile. The supernatant was analyzed for both Icb and IVe by LC/MS/MS.” for “acetonitrile.”

[5] = Aqueous / crystalline solubility; details: aqueous solution
human hepatocytes = experiment: Hydrolysis of prodrug in hepatocytes (human); assay type: in vitro ADME
Procedure: as §1

[6] = dog, 10 μM
Procedure: The stability of Iab was studied in fresh blood and serum from rat, dog, monkey and human (n=2). The blood was collected in vacutainers containing K2EDTA (Becton Dickinson, Franklin Lakes, N.J.). The serum was collected in vacutainers containing no anticoagulant. Iab was incubated at a starting concentration of approximately 10 μM for 60-90 min at 37° C. Serial samples were taken at the pre-determined times. Aliquots of blood samples (200 μL) were first mixed with 100 μL of water followed by 400 μL of acetonitrile. The serum samples (50 μL) were added into microtainers containing K2EDTA (Becton Dickinson, Franklin Lakes, N.J.) followed by the addition of 100 μL of acetonitrile. The supernatant was analyzed for both Iab and IVa by LC/MS/MS. The stability of Ibb was studied in fresh blood and serum from rat, dog, monkey and human (n=2). The blood was collected in vacutainers containing K2EDTA (Becton Dickinson, Franklin Lakes, N.J.). The serum was collected in vacutainers containing no anticoagulant. Ibb was incubated at a starting concentration of approximately 15 μM for 90 min at 37° C. Serial samples were taken at the pre-determined times. Aliquots of blood samples (200 μL) were first mixed with 100 μL of water followed by 400 μL of acetonitrile. The serum samples (50 μL) were added into microtainers containing K2EDTA (Becton Dickinson, Franklin Lakes, N.J.) followed by the addition of 100 μL of acetonitrile. […] The stability of Icb was studied in fresh blood and serum from rat, dog, monkey and human (n=2). The blood was collected in vacutainers containing K2EDTA (Becton Dickinson, Franklin Lakes, N.J.). The serum was collected in vacutainers containing no anticoagulant. Icb was incubated at a starting concentration of approximately 10 μM for 90 min at 37° C. Serial samples were taken at the pre-determined times. Aliquots of blood samples (200 μL) were first mixed with 100 μL of water followed by 400 μL of acetonitrile. The serum samples (50 μL) were added into microtainers containing K2EDTA (Becton Dickinson, Franklin Lakes, N.J.) followed by the addition of 100 μL of acetonitrile.

[7] = in vivo, dogs, IVa Clinical Form Capsules, Fasting
[8] = in vivo, dogs, IVa Clinical Form Capsules, Fed
[9] = plasma, IVa after Iab dry-filled capsules, Fasting
[10] = plasma, IVa after Iab dry-filled capsules, Fed
[11] = dogs, IVa Clinical Form Capsules (20 mg/kg)
[12] = plasma, 1 mg/kg, historic, parent IV 1 mpk
[13] = plasma, iv, 1 mg/kg, after IV prodrug dosing equivalent to 1 mpk of parent, analyte = label, read-out: T1/2 i.v. (converted)
[14] = plasma, iv, 1 mg/kg, historic, parent IV 1 mpk, read-out: T1/2 i.v. (converted)
[15] = plasma, 5 mg/kg, after PO prodrug dosing equivalent to 5 mpk of parent, analyte = label
[16] = plasma, 5 mg/kg, historic, after PO dosing of parent 5 mpk
[17] = plasma, po, 5 mg/kg, after PO prodrug dosing equivalent to 5 mpk of parent, analyte = label
[18] = plasma, po, 5 mg/kg, historic, after PO dosing of parent 5 mpk
[19] = plasma, po, 5 mg/kg, after PO prodrug dosing equivalent to 5 mpk of parent
[20] = plasma, po, 5 mg/kg, after PO prodrug dosing equivalent to 5 mpk of parent, read-out: T1/2 p.o. (converted)
[21] = plasma, po, 5 mg/kg, historic, after PO dosing of parent 5 mpk, read-out: T1/2 p.o. (converted)
[22] = parent AUC after prodrug dosing vs after parent dosing
[23] = pH 7.5, ALP Activity 10 Units/L
[24] = pH 7.5, ALP Activity 100 Units/L
[25] = pH 7.5, ALP Activity 1000 Units/L

T1 sequence (P05187 23-506 limits assumed): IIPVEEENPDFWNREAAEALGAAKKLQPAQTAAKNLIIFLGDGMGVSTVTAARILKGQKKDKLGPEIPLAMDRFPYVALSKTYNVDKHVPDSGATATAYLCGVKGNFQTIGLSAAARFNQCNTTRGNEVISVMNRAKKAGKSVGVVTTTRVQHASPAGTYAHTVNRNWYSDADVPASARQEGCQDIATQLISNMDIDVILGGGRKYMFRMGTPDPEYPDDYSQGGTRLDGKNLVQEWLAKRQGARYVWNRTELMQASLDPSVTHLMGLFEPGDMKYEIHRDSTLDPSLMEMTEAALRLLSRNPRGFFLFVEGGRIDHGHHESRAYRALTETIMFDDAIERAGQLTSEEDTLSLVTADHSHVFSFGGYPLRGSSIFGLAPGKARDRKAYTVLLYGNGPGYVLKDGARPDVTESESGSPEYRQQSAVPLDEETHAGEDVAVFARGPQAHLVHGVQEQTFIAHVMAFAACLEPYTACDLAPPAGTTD

COc1ncc(OC)c2c(C(=O)C(=O)N3CCN(C(=O)c4ccccc4)CC3)c[nH]c12 [IVa, N-(benzoyl)-N′-[(4,7-dimethoxy-6-azaindol-3-yl)-oxoacetyl]piperazine]
AUC ([1]; in vivo, dogs, IVa Clinical Form Capsules (20 mg/kg), Fed): 96 ± 10 µM·h
Cmax [1, 7]: 1200 ± 220 nM
Tmax [1, 7]: 3.3 ± 1.2 h
Cmax [1, 8]: 11000 ± 990 nM
Tmax [1, 8]: 4 h
Cmax [1, 9]: 70000 ± 12000 nM
Tmax [1, 9]: 2 h
half-life [1, 9]: 4.2 ± 0.42 h
Cmax [1, 10]: 130000 ± 102000 nM
Tmax [1, 10]: 1.5 ± 0.87 h
half-life [1, 10]: 3.2 ± 1 h
AUC ([1]; plasma, IVa in dogs after Iab dry-filled capsules (20 mg/kg of IVa equivalent), Fasting, n = 3): 414 ± 70 µM·h
AUC ([1]; plasma, IVa in dogs after Iab dry-filled capsules (20 mg/kg of IVa equivalent), Fed): 422 ± 57 µM·h
AUC ([1]; plasma, dogs, IVa Clinical Form Capsules (20 mg/kg), Fasting, n = 3): 11 ± 1.4 µM·h
half-life ([1]; plasma, dogs, IVa Clinical Form Capsules, Fasting): 5.3 ± 2.7 h
half-life ([1]; plasma, dogs, IVa Clinical Form Capsules, Fed): 8 ± 3.1 h
improvement in AUC and Cmax (exposure) in fed vs fasted dogs ([1]; dogs receiving IVa clinical capsule, high fat meal): 9 fold
AUCtot Fed/Fasting Ratio [1, 11]: 9.0 ± 2.2
Cmax Fed/Fasting Ratio [1, 11]: 9.1 ± 0.92
Vd [2, 12]: 1.4 ± 0.4 L/kg
half-life [2, 13]: 2.8 ± 1.5 h
half-life [2, 14]: 4 ± 2.6 h
concentration at 24 h [2, 15]: 35.2 nM
concentration at 24 h [2, 16]: 9.2 nM
AUC(0-t) [2, 17]: 5.9 ± 1 µM·h
AUC(0-t) [2, 18]: 14.9 ± 6.2 µM·h
Tmax [2, 19]: 1.7 h
Cmax [2, 17]: 1400 ± 600 nM
half-life [2, 20]: 3.3 ± 2.2 h
Cmax [2, 18]: 4500 ± 1500 nM
Tmax [2, 18]: 2 h
half-life [2, 21]: 1.9 ± 0.8 h
CL i.v. ([2]; historic, parent IV 1 mpk): 13 ± 4.6 mL/min/kg
AUC0 tot ratio after IV administration* [2, 22]: 0.534
AUCtot ratio after PO administration** [2, 22]: 0.39
solubility (physchem; aqueous): 40 to 900 µg/mL (≈ 94.7 to 2130 µM)

O=C(C(=O)N1CCN(C(=O)c2ccccc2)CC1)c1c[nH]c2c(-n3ccnn3)ncc(F)c12 [IVb]
Cmax ([2]; in vivo, 5 mg/kg, historic, after PO dosing of parent 5 mpk): 9500 ± 2800 nM
Vd [2, 12]: 0.49 ± 0.26 L/kg
half-life [2, 13]: 1.5 ± 0.2 h
half-life [2, 14]: 5.9 ± 4.9 h
concentration at 24 h [2, 15]: 7.5 nM
concentration at 24 h [2, 16]: 161 nM
AUC(0-t) [2, 17]: 13.7 ± 2.6 µM·h
AUC(0-t) [2, 18]: 86 ± 33 µM·h
Tmax [2, 19]: 1.1 h
Cmax [2, 17]: 3900 ± 800 nM
half-life [2, 20]: 2.4 ± 0.5 h
Tmax [2, 18]: 4.6 h
half-life [2, 21]: 3.7 ± 0.9 h
solubility (physchem; aqueous): 7 to 190 µg/mL (≈ 15.6 to 425 µM)

COc1cnc(-n2cnc(C)n2)c2[nH]cc(C(=O)C(=O)N3CCN(C(=O)c4ccccc4)CC3)c12 [IVc]
Vd [2, 12]: 0.4 ± 0.09 L/kg
concentration at 24 h [2, 15]: 84.3 nM
concentration at 24 h [2, 16]: 61 nM
AUC(0-t) [2, 17]: 56 ± 7.5 µM·h
AUC(0-t) [2, 18]: 110 ± 25 µM·h
Tmax [2, 19]: 0.8 ± 0.1 h
Cmax [2, 17]: 10200 ± 2100 nM
Cmax [2, 18]: 13400 ± 3600 nM
Tmax [2, 18]: 4 h

O=C(C(=O)N1CCN(C(=O)c2ccccc2)CC1)c1cn(COP(=O)(O)O)c2c(-n3ccnn3)ncc(F)c12 [Ibb, [3-[(4-benzoylpiperazin-1-yl)(oxo)acetyl]-4-fluoro-7-(1H-1,2,3-triazol-1-yl)-1H-pyrrolo[2,3-c]pyridin-1-yl]methyl dihydrogen phosphate, L-lysine salt (1:1)]
half-life at 15 μM (in vitro): 11.7 h
solution and solid stabilities [3]: acceptable solution and solid stabilities
hydrolysis in the presence of hepatocytes (rat hepatocytes; rat hepatocytes, qualitative): hydrolyzed
half-life at 10 μM [4, 23]: 198 min
half-life at 10 μM [4, 24]: 16 min
half-life at 10 μM [4, 25]: 2 min
concentration of aqueous solutions prepared for in vivo toxicology studies [5]: > 75 mg/mL
solubility (physchem; aqueous solution (pH range 1.5 to 8.7)): > 11000 µg/mL
hydrolysis in the presence of hepatocytes (human hepatocytes; human hepatocytes, qualitative): hydrolyzed

COc1cnc(-n2cnc(C)n2)c2c1c(C(=O)C(=O)N1CCN(C(=O)c3ccccc3)CC1)cn2COP(=O)(O)O [Icb, [3-[(4-benzoylpiperazin-1-yl)(oxo)acetyl]-4-methoxy-7-(3-methyl-1H-1,2,4-triazol-1-yl)-1H-pyrrolo[2,3-c]pyridin-1-yl]methyl dihydrogen phosphate, 2-amino-2-(hydroxymethyl)propane-1,3-diol salt (1:1)]
Icb ([6]; 0 min): 10 µM
Icb ([6]; 15 min): 9.7 µM
Icb ([6]; 90 min): 6.9 µM
half-life at 10 μM (in vitro): 0.7 h
hydrolysis in the presence of hepatocytes (rat hepatocytes): hydrolyzed
half-life at 10 μM [4, 23]: 250 min
half-life at 10 μM [4, 24]: 29 min
half-life at 10 μM [4, 25]: 2.4 min
hydrolysis in the presence of hepatocytes (human hepatocytes): hydrolyzed
